Inconclusive results and toxic doses are left out.
System: L1210 leukemia ip in BDF1 mice, survival T/C
Assay: NCI In Vivo Anticancer Drug Screen. Data for tumor model L1210 Leukemia (intraperitoneal) in B6D2F1 (BDF1) mice
Details: higher = longer survival
How it was run: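 Antitumor effect is assessed in tumor-bearing animals. Survival in the compound arm is compared with a vehicle-dosed control arm and expressed as their quotient.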

[1] = endpoint: mean survival time, dose: 100.0 mg/kg/injection, schedule: Q04DX003 (ip), vehicle: saline
[2] = endpoint: mean survival time, dose: 400.0 mg/kg/injection, schedule: Q04DX003 (ip), vehicle: saline
[3] = endpoint: mean survival time, dose: 100.0 mg/kg/injection, schedule: Q04DX003 (ip), vehicle: Klucel (hydroxypropylcellulose) (HPC)
[4] = endpoint: mean survival time, dose: 200.0 mg/kg/injection, schedule: Q04DX003 (ip), vehicle: Klucel (hydroxypropylcellulose) (HPC)
[5] = endpoint: mean survival time, dose: 400.0 mg/kg/injection, schedule: Q04DX003 (ip), vehicle: Klucel (hydroxypropylcellulose) (HPC)
[6] = endpoint: mean survival time, dose: 100.0 mg/kg/injection, schedule: Q01DX001 (ip), vehicle: saline
[7] = endpoint: mean survival time, dose: 200.0 mg/kg/injection, schedule: Q01DX001 (ip), vehicle: saline

C[C@@H](CN1CC(=O)NC(=O)C1)N1CC(=O)NC(=O)C1
T/C (endpoint: mean survival time, dose: 25.0 mg/kg/injection, schedule: Q04DX003 (ip), vehicle: saline): 116 % of control
T/C (endpoint: mean survival time, dose: 25.0 mg/kg/injection, schedule: Q04DX003 (ip), vehicle: water): 111 % of control
T/C (endpoint: mean survival time, dose: 32.0 mg/kg/injection, schedule: Q04DX003 (oral), vehicle: saline): 117 % of control
T/C (endpoint: mean survival time, dose: 50.0 mg/kg/injection, schedule: Q04DX003 (ip), vehicle: saline): 116 % of control
T/C (endpoint: mean survival time, dose: 50.0 mg/kg/injection, schedule: Q04DX003 (ip), vehicle: water): 100 % of control
T/C (endpoint: mean survival time, dose: 64.0 mg/kg/injection, schedule: Q04DX003 (oral), vehicle: saline): 151 % of control
T/C [1]: 115 % of control
T/C (endpoint: mean survival time, dose: 128.0 mg/kg/injection, schedule: Q04DX003 (oral), vehicle: saline): 180 % of control
T/C (endpoint: mean survival time, dose: 256.0 mg/kg/injection, schedule: Q04DX003 (oral), vehicle: saline): 180 % of control
T/C [2]: 150 % of control
T/C (endpoint: mean survival time, dose: 400.0 mg/kg/injection, schedule: Q04DX003 (ip), vehicle: water): 158 % of control
T/C (endpoint: mean survival time, dose: 512.0 mg/kg/injection, schedule: Q04DX003 (oral), vehicle: saline): 155 % of control
T/C (endpoint: mean survival time, dose: 800.0 mg/kg/injection, schedule: Q04DX003 (ip), vehicle: saline): 187 % of control
T/C (endpoint: median survival time, dose: 8.0 mg/kg/injection, schedule: Q01DX009 (sc), vehicle: saline): 118 % of control
T/C (endpoint: median survival time, dose: 8.0 mg/kg/injection, schedule: Q03HX008 (ip), vehicle: saline): 152 % of control
T/C (endpoint: median survival time, dose: 8.0 mg/kg/injection, schedule: Q03HX016 (ip), vehicle: saline): 173 % of control
T/C (endpoint: median survival time, dose: 8.0 mg/kg/injection, schedule: Q03HX024 (ip), vehicle: saline): 263 % of control
T/C (endpoint: median survival time, dose: 16.0 mg/kg/injection, schedule: Q01DX009 (sc), vehicle: saline): 119 % of control
T/C (endpoint: median survival time, dose: 16.0 mg/kg/injection, schedule: Q03HX008 (ip), vehicle: saline): 152 % of control
T/C (endpoint: median survival time, dose: 16.0 mg/kg/injection, schedule: Q03HX016 (ip), vehicle: saline): 186 % of control
T/C (endpoint: median survival time, dose: 16.0 mg/kg/injection, schedule: Q03HX024 (ip), vehicle: saline): 300 % of control
T/C (endpoint: median survival time, dose: 32.0 mg/kg/injection, schedule: Q03HX008 (ip), vehicle: saline): 155 % of control
T/C (endpoint: median survival time, dose: 32.0 mg/kg/injection, schedule: Q03HX016 (ip), vehicle: saline): 193 % of control
T/C (endpoint: median survival time, dose: 32.0 mg/kg/injection, schedule: Q03HX024 (ip), vehicle: saline): 113 % of control
T/C (endpoint: median survival time, dose: 64.0 mg/kg/injection, schedule: Q01DX001 (ip), vehicle: saline): 108 % of control
T/C (endpoint: median survival time, dose: 64.0 mg/kg/injection, schedule: Q01DX009 (sc), vehicle: saline): 159 % of control
T/C (endpoint: median survival time, dose: 64.0 mg/kg/injection, schedule: Q03HX008 (ip), vehicle: saline): 158 % of control
T/C (endpoint: median survival time, dose: 64.0 mg/kg/injection, schedule: Q03HX024 (ip), vehicle: saline): 94 % of control
T/C (endpoint: median survival time, dose: 64.0 mg/kg/injection, schedule: Q04DX003 (ip), vehicle: saline): 110 % of control
T/C (endpoint: median survival time, dose: 64.0 mg/kg/injection, schedule: Q04DX003 (sc), vehicle: saline): 106 % of control
T/C (endpoint: median survival time, dose: 64.0 mg/kg/injection, schedule: Q08DX002 (ip), vehicle: saline): 104 % of control
T/C (endpoint: median survival time, dose: 128.0 mg/kg/injection, schedule: Q01DX001 (ip), vehicle: saline): 106 % of control
T/C (endpoint: median survival time, dose: 128.0 mg/kg/injection, schedule: Q03HX008 (ip), vehicle: saline): 152 % of control
T/C (endpoint: median survival time, dose: 128.0 mg/kg/injection, schedule: Q03HX016 (ip), vehicle: saline): 107 % of control
T/C (endpoint: median survival time, dose: 128.0 mg/kg/injection, schedule: Q03HX024 (ip), vehicle: saline): 86 % of control
T/C (endpoint: median survival time, dose: 128.0 mg/kg/injection, schedule: Q04DX003 (ip), vehicle: saline): 118 % of control
T/C (endpoint: median survival time, dose: 128.0 mg/kg/injection, schedule: Q04DX003 (sc), vehicle: saline): 109 % of control
T/C (endpoint: median survival time, dose: 256.0 mg/kg/injection, schedule: Q01DX001 (ip), vehicle: saline): 109 % of control
T/C (endpoint: median survival time, dose: 256.0 mg/kg/injection, schedule: Q04DX003 (ip), vehicle: saline): 118 % of control
T/C (endpoint: median survival time, dose: 256.0 mg/kg/injection, schedule: Q08DX002 (ip), vehicle: saline): 121 % of control
T/C (endpoint: median survival time, dose: 512.0 mg/kg/injection, schedule: Q01DX001 (ip), vehicle: saline): 111 % of control
T/C (endpoint: median survival time, dose: 512.0 mg/kg/injection, schedule: Q04DX003 (sc), vehicle: saline): 182 % of control
T/C (endpoint: median survival time, dose: 1024.0 mg/kg/injection, schedule: Q04DX003 (ip), vehicle: saline): 186 % of control
T/C (endpoint: median survival time, dose: 1024.0 mg/kg/injection, schedule: Q04DX003 (sc), vehicle: saline): 236 % of control
T/C (endpoint: median survival time, dose: 1024.0 mg/kg/injection, schedule: Q08DX002 (ip), vehicle: saline): 150 % of control

O=S(=O)(O)c1cccc2c(S(=O)(=O)O)cccc12
T/C [3]: 107 % of control
T/C [4]: 100 % of control
T/C [5]: 97 % of control

NCc1nc(C(=O)O)cs1
T/C [6]: 110 % of control
T/C (endpoint: mean survival time, dose: 100.0 mg/kg/injection, schedule: Q01DX009 (ip), vehicle: saline): 91 % of control
T/C [1]: 116 % of control
T/C [7]: 102 % of control
T/C (endpoint: mean survival time, dose: 200.0 mg/kg/injection, schedule: Q01DX009 (ip), vehicle: saline): 87 % of control
T/C (endpoint: mean survival time, dose: 200.0 mg/kg/injection, schedule: Q04DX003 (ip), vehicle: saline): 112 % of control
T/C (endpoint: mean survival time, dose: 400.0 mg/kg/injection, schedule: Q01DX001 (ip), vehicle: saline): 112 % of control
T/C (endpoint: mean survival time, dose: 400.0 mg/kg/injection, schedule: Q01DX009 (ip), vehicle: saline): 86 % of control
T/C [2]: 96 % of control

CN(C)c1nn[nH]n1
T/C [3]: 95 % of control
T/C [4]: 88 % of control
T/C [5]: 95 % of control

[I][Sn]([c]1ccccc1)([c]1ccccc1)[c]1ccccc1
T/C (endpoint: mean survival time, dose: 0.25 mg/kg/injection, schedule: Q01DX009 (ip), vehicle: Klucel (hydroxypropylcellulose) (HPC)): 93 % of control
T/C (endpoint: mean survival time, dose: 0.5 mg/kg/injection, schedule: Q01DX009 (ip), vehicle: Klucel (hydroxypropylcellulose) (HPC)): 101 % of control
T/C (endpoint: mean survival time, dose: 1.0 mg/kg/injection, schedule: Q01DX009 (ip), vehicle: Klucel (hydroxypropylcellulose) (HPC)): 97 % of control

CCCCCCC(=O)N1CCCC(C)C1 (centres undefined)
T/C (endpoint: mean survival time, dose: 100.0 mg/kg/injection, schedule: Q04DX002 (ip), vehicle: Klucel (hydroxypropylcellulose) (HPC)): 98 % of control
T/C (endpoint: mean survival time, dose: 200.0 mg/kg/injection, schedule: Q04DX002 (ip), vehicle: Klucel (hydroxypropylcellulose) (HPC)): 106 % of control

Cc1ncc(CCl)c2c1OC(C)(C)OC2
T/C (endpoint: mean survival time, dose: 75.0 mg/kg/injection, schedule: Q01DX001 (ip), vehicle: saline): 100 % of control
T/C [6]: 100 % of control
T/C (endpoint: mean survival time, dose: 150.0 mg/kg/injection, schedule: Q01DX001 (ip), vehicle: saline): 101 % of control
T/C [7]: 94 % of control

O=S1(=O)CC(Cl)C(Cl)C1 (centres undefined)
T/C (endpoint: mean survival time, dose: 1.56 mg/kg/injection, schedule: Q01DX009 (ip), vehicle: saline): 90 % of control
T/C (endpoint: mean survival time, dose: 3.12 mg/kg/injection, schedule: Q01DX009 (ip), vehicle: saline): 91 % of control
T/C (endpoint: mean survival time, dose: 6.25 mg/kg/injection, schedule: Q01DX009 (ip), vehicle: saline): 91 % of control
T/C (endpoint: mean survival time, dose: 12.5 mg/kg/injection, schedule: Q01DX001 (ip), vehicle: other): 94 % of control
T/C (endpoint: mean survival time, dose: 12.5 mg/kg/injection, schedule: Q01DX001 (ip), vehicle: saline with Tween-80): 98 % of control
T/C (endpoint: mean survival time, dose: 12.5 mg/kg/injection, schedule: Q01DX009 (ip), vehicle: other): 90 % of control
T/C (endpoint: mean survival time, dose: 12.5 mg/kg/injection, schedule: Q01DX009 (ip), vehicle: saline): 98 % of control
T/C (endpoint: mean survival time, dose: 12.5 mg/kg/injection, schedule: Q04DX003 (ip), vehicle: Klucel (hydroxypropylcellulose) (HPC)): 106 % of control
T/C (endpoint: mean survival time, dose: 25.0 mg/kg/injection, schedule: Q01DX001 (ip), vehicle: other): 95 % of control
T/C (endpoint: mean survival time, dose: 25.0 mg/kg/injection, schedule: Q01DX001 (ip), vehicle: saline with Tween-80): 100 % of control
T/C (endpoint: mean survival time, dose: 25.0 mg/kg/injection, schedule: Q04DX003 (ip), vehicle: Klucel (hydroxypropylcellulose) (HPC)): 108 % of control
T/C (endpoint: mean survival time, dose: 25.0 mg/kg/injection, schedule: Q04DX003 (ip), vehicle: saline with Tween-80): 101 % of control
T/C (endpoint: mean survival time, dose: 50.0 mg/kg/injection, schedule: Q01DX001 (ip), vehicle: other): 95 % of control
T/C (endpoint: mean survival time, dose: 50.0 mg/kg/injection, schedule: Q04DX003 (ip), vehicle: Klucel (hydroxypropylcellulose) (HPC)): 92 % of control
T/C (endpoint: mean survival time, dose: 50.0 mg/kg/injection, schedule: Q04DX003 (ip), vehicle: saline with Tween-80): 90 % of control
